From patent US20240209011A1, “HETEROAROMATIC PHOSPHONIUM SALTS FOR TREATING CANCER” (FLORATEK PHARMA S.A., priority 2021, published 2024)
Marks after values point to notes of the source that are not given here.

How the values were obtained:
panel of 30 kinases = assay: KINOMEscan primary screen; assay type: binding; conditions: % Ctrl between 0 and 10 selected for Kd
Experimental: Selected compounds were screened for kinase inhibition using the KINOMEscan™ assay (Eurofins) which is based on a competition binding assay that quantitatively measures the ability of a compound to compete with an immobilized, active-site directed ligand. The assay was performed by combining three components: DNA-tagged kinase; immobilized ligand; and the test compound. The ability of the test compound to compete with the immobilized ligand was measured via quantitative PCR of the DNA tag.
Kinase-tagged T7 phage strains were prepared in an E. coli host derived from the BL21 strain. E. coli were grown to log-phase and infected with T7 phage and incubated with shaking at 32° C. until lysis. The lysates were centrifuged and filtered to remove cell debris. The remaining kinases were produced in HEK-293 cells and subsequently tagged with DNA for qPCR detection. Streptavidin-coated magnetic beads were treated with biotinylated small molecule ligands for 30 minutes at room temperature to generate affinity resins for kinase assays. The liganded beads were blocked with excess biotin and washed with blocking buffer (SeaBlock (Pierce), 1% BSA, 0.05% Tween 20, 1 mM DTT) to remove unbound ligand and to reduce non-specific binding. Binding reactions were assembled by combining kinases, liganded affinity beads, and test compounds in 1× binding buffer (20% SeaBlock, 0.17×PBS, 0.05% Tween 20, 6 mM DTT). Test compounds were prepared as 111× stocks in 100% DMSO. Kds were determined using an 11-point 3-fold compound dilution series with three DMSO control points. All compounds for Kd measurements are distributed by acoustic transfer (non-contact dispensing) in 100% DMSO. The compounds were then diluted directly into the assays such that the final concentration of DMSO was 0.9%. All reactions performed in polypropylene 384-well plate. Each was a final volume of 0.02 ml. The assay plates were incubated at room temperature with shaking for 1 hour and the affinity beads were washed with wash buffer (1×PBS, 0.05% Tween 20). […] The kinase concentration in the eluates was measured by qPCR. […]

endometrial PDX = assay: Activity against endometrial PDX; assay type: cell-based; conditions: endometrial PDX growth; text summary of Table 9
Experimental: (§1) PDX-derived cell cultures were obtained from tumors explanted from mice and isolated by mechanical and enzymatic dissociation. […] Cells were harvested and seeded in 96-wells plates at a density of 1.25 to 5×10^3 cells/well for cytotoxicity assays. Cells were incubated 48 h at 37° C. prior to addition of test molecules and vehicle (DMSO, 0.1%) at desired final concentrations. Cell viability was assessed before drugs' addition (To) and 5 days after test molecules addition by measuring ATP cell content using CellTiter-Glo® Luminescent Cell Viability Assay (Promega) according to the manufacturer's instructions. Luciferase activity was measured on a luminometer (PerkinElmer® EnVision™). Each concentration of compounds was tested in triplicate.
(§2) Viability was calculated as a percentage of ATP value compared to vehicle treated controls.
(§3) For PDX primary cell cultures, the tumour tissue was washed with PBS containing antibiotic-antimycotic and non-tumour tissue and necrotic tumour tissues were separated. The tumour tissue was transferred to a new dish and cut into 1-2 mm^3 fragments, resuspended in RPMI-1640 medium and centrifuged at 1,200 rpm for 6 min at room temperature. The pelleted material was resuspended with 15 mL of Tumour Cell Digestion Solution and incubated at 37° C. for 1 hour with agitation. Following further addition of media, centrifugation and passage through a […] cell strainer, the homogenous cell mixture was layered onto 15 mL of Ficoll-Paque PLUS in a 50 mL conical tube and centrifuged for 15 min at 1,600 rpm. The interface cells were collected, washed with media, separated by centrifugation at 1,200 rpm. The cell pellet was resuspended in serum free media supplemented with growth factors. 10,000 cells/wells were plated in a 96 well plate and incubated at 37° C., 5% CO2, 95% air and 100% relative humidity overnight. The cytotoxicity assay was conducted as above. IC50 values represent absolute IC50.

stomach PDX = assay: Activity against stomach PDX; assay type: cell-based; conditions: stomach PDX growth; summary of Table 23
Experimental: as §1, §2, §3

lymphoma PDX = assay: Activity against lymphoma PDX; assay type: cell-based; conditions: lymphoma PDX growth; Table 17
Experimental: as §1, §2, §3

head and neck PDX = assay: Activity against head and neck PDX; assay type: cell-based; conditions: head and neck PDX growth; Table 11
Experimental: as §1, §2, §3

K562 CDX = assay: In vivo tumour inhibition of xenograft leukemia model K562; conditions: K562 CDX in NOG mice; for Optimal T/C (value): day 17 after tumour transplantation, median tumour volume treated/control; for tumour growth inhibition: i.p. daily, T/C at day 17 after tumour transplantation
Experimental: In vivo activity against a number of CDX were evaluated in various nude or SCID mice. Tumour cells were inoculated subcutaneous (s.c) into the mice flank. Mice were randomized into groups when tumours were around 100-200 mm^3. A vehicle control group (2.5-4% DMSO, 5% EtOH, 20% PEG200 in saline) was part of each experiment. Treatment was administered intraperitoneally (i.p.) 3 times a week or daily (qd).
Body weight was measured before each treatment and treatments of individual mice was paused, when the body weight loss was >15%. Tumor volumes were measured 2×/week. Mice were individually sacrificed, when the tumor volume reached the volume specified in the laboratory internal SOP.
The tumour inhibition growth was assessed as the optimal T/C, where T represents the median tumour volume of the treated group and C represents the median tumour volume of the control (vehicle) group. Statistical analysis was performed using two way RM ANOVA with p values […] considered statistically significant.
Test compounds were evaluated for the in vivo inhibition activity against the chronic myelogenous leukemia CDX in NOG mice. 1×10^7 cells were injected s.c. into the left flank at day 0. Mice were stratified into groups of 10 mice each with a mean tumor volume of 109±35 mm^3 and the treatment was administered i.p. daily.

| SMILES | Weight loss (%) (K562 CDX; 10 mg/kg/inj i.p. qd) | Weight loss (%) (K562 CDX; 5 mg/kg/inj i.p. qd) | No. responsive kinases (panel of 30 kinases) | IC50 (endometrial PDX) | IC50 (stomach PDX) | IC50 (lymphoma PDX) | IC50 (head and neck PDX) | Optimal T/C (value) (K562 CDX; 10 mg/kg/inj i.p. qd) | tumour growth inhibition (K562 CDX) | Optimal T/C (value) (K562 CDX; 5 mg/kg/inj i.p. qd) |
| --- | --- | --- | --- | --- | --- | --- | --- | --- | --- | --- |
| O=c1cc(-c2ccc(CCCC[P+](c3ccccc3)(c3ccccc3)c3ccccc3)cc2)oc2c3c(ccc12)OCO3.[Br-] [SND123, 4-[4-(6-oxo-[1,3]dioxolo[4,5-h]chromen-8-yl)phenyl]butyl-triphenylphosphonium bromide] |  |  | 4 | < 20 µM | < 20 µM | < 5 µM | < 10 µM |  |  |  |
| CCNC(=O)Oc1ccc2c(=O)cc(-c3ccc(CCCC[P+](c4ccccc4)(c4ccccc4)c4ccccc4)cc3)oc2c1O.[Br-] [SND126A, 4-[4-[7-(Ethylcarbamoyloxy)-8-hydroxy-4-oxo-chromen-2-yl]phenyl]butyltriphenylphosphonium bromide] |  |  |  | < 20 µM | < 20 µM | < 5 µM | < 10 µM |  |  |  |
| CCNC(=O)Oc1ccc2c(=O)cc(-c3ccc(CCCC[P+](c4ccccc4)(c4ccccc4)c4ccccc4)cc3)oc2c1OC(=O)NCC.[Br-] [SND124, 4-[4-[7,8-Bis(ethylcarbamoyloxy)-4-oxo-chromen-2-yl]phenyl]-butyltriphenylphosphonium bromide] |  |  |  | < 20 µM | < 20 µM | < 5 µM | < 10 µM |  |  |  |

The next lines start with results.

| Weight loss (%) (K562 CDX; 10 mg/kg/inj i.p. qd) | Weight loss (%) (K562 CDX; 5 mg/kg/inj i.p. qd) | SMILES | No. responsive kinases (panel of 30 kinases) | IC50 (endometrial PDX) | IC50 (stomach PDX) | IC50 (lymphoma PDX) | IC50 (head and neck PDX) | Optimal T/C (value) (K562 CDX; 10 mg/kg/inj i.p. qd) | tumour growth inhibition (K562 CDX) | Optimal T/C (value) (K562 CDX; 5 mg/kg/inj i.p. qd) |
| --- | --- | --- | --- | --- | --- | --- | --- | --- | --- | --- |
| 8% |  | O=c1cc(-c2ccc(CCCC[P+](c3ccccc3)(c3ccccc3)c3ccccc3)cc2)oc2c(O)c(O)ccc12 [SND118, 4-[4-(7,8-dihydroxy-4-oxo-chromen-2-yl)phenyl]butyltriphenyl-phosphonium bromide] | 1 |  |  |  |  | 58*** | significantly inhibited tumour growth |  |
|  | 5% | COc1c(O)ccc2c(=O)cc(-c3ccc(CCCC[P+](c4ccccc4)(c4ccccc4)c4ccccc4)cc3)oc12.[Br-] [SND140, (4-(4-(7-hydroxy-8-methoxy-4-oxo-4H-chromen-2-yl)phenyl)butyl)triphenylphosphonium bromide] | 4 | < 20 µM | < 20 µM | < 5 µM | < 10 µM |  | significantly inhibited tumour growth | 69* |
